Columns and labels:
[1] = system: normal stop codons; conditions: cited from earlier work
[2] = system: CD3+ immune cells infiltrating tumor tissue; assay: Immunohistochemistry of sectioned tumor tissue for immune cell infiltration; assay type: in vivo, C57BL/6 mice; conditions: FIG. 4
Experimental: Immunohistochemistry (IHC): Formalin-fixed paraffin-embedded (FFPE) tissue from tumor samples were sectioned to 4 um. Antigen retrieval (AR) was conducted at 100° C., in EDTA buffer, at pH 9.0 for 20 min. Primary antibody (diluted with validated concentration), RT 60 min+ secondary antibody (ready-to-use), RT 60 min+Bond Polymer Refine Detection.

[3] = system: intratumoral T-cell infiltrates (CD45+, CD3+, CD8+, and CD4+ cells); assay: FACS analysis for intratumoral T-cell infiltrates; assay type: in vivo, C57BL/6 mice; conditions: FIG. 5
Experimental: FACS analysis: Tumor cells were isolated from each treatment group and FACS analysis performed according to methods which are well known in the art.

[4] = phase-I clinical study in cystic fibrosis; cited from earlier work
[5] = system: MC38 tumor cells; assay: MC38 subcutaneous tumor model in C57BL/6 mice, tumor volume by caliper; assay type: in vivo; parameters: Percent inhibition of tumor volume: concentration or dose not given beside the values; conditions: for Percent inhibition of tumor volume: negative values indicate an increase in tumor volume; for Mean tumor volume: PTC124 20 mg/kg i.p. QD, antibodies 10 mg/kg (anti-CD8 200 ug/mouse) BIW x 3 weeks
Experimental: Animals: Female 6-8 week old (estimated age at inoculation) C57BL/6 mice were obtained from Shanghai Lingchang Bio-Technology Co. Ltd (LC, Shanghai, China). The animals were housed at 20˜26° C. with a 12 hours light and 12 hours darkness cycle.
Cell Culture: MC38 tumor cells were maintained in vitro as a monolayer culture in DMEM medium supplemented with 10% fetal bovine serum at 37° C. in an atmosphere of 5% CO2 in air. The tumor cells were routinely subcultured twice weekly. Cells in an exponential growth phase were harvested and counted for tumor inoculation.
Therapeutic compounds: Ataluren (PTC124) was obtained from Selleck Chemicals (Houston, Tex.). Anti-PD-1 and anti-CTLA-4 antibodies were obtained from BioXCell as was an anti-CD8 antibody.
Tumor Inoculation: Each mouse was inoculated subcutaneously at the right lower flank region with MC38 tumor cells (1×10^6) in 0.1 mL of PBS for tumor development. The treatments were started when the mean tumor size reaches approximately 50 mm^3. The date of tumor cell inoculation was denoted as day 0.
Group assignment: Before grouping and treatment, all animals were weighed and the tumor volumes measured using a caliper. Tumor volume was used as numeric parameter to randomize selected animals into specified groups in order to minimize systematic error. The grouping was performed by using StudyDirector™ software (Studylog Systems, Inc. CA, USA). One optimal randomization design (generated by Matched distribution) showing minimal group to group variation in tumor volume was selected for group allocation.
After tumor cell inoculation, the animals were checked daily for morbidity and mortality as well as any effects of tumor growth and treatments on normal behavior such as mobility, visual estimation of food and water consumption, body weight gain/loss, eye/hair matting and any other abnormal effect. Tumor volumes were measured twice weekly at least in two dimensions using a caliper, and the volume expressed in mm^3 using the formula: V=0.5 a×b^2 where a and b are the long and short diameters of the tumor, respectively.

## O=C(O)c1cccc(-c2noc(-c3ccccc3F)n2)c1 [PTC124, 3-[5-(2-Fluorophenyl)-1,2,4-oxadiazol-3-yl]benzoic acid]
[1]
  Ribosomal read-through of normal stop codons: does not induce ribosomal read-through of normal stop codons
[2]
  CD3+ immune cells infiltrating tumor tissue (immunohistochemical analysis): significant numbers of CD3+ immune cells infiltrating tumor tissue
[3]
  Intratumoral T-cell infiltrates (CD45+, CD3+, CD8+, and CD4+ cells) by FACS: increased intratumoral T-cell infiltrates
[4]
  Read-through activity compared with aminoglycosides: more efficient read-through activity than aminoglycosides
  Tolerability: generally well tolerated
[5]; Day 9
  Percent inhibition of tumor volume: −0.96%
[5]; Day 9 after inoculation (randomization)
  Mean tumor volume: 52.46 mm^3
[5]; Day 12
  Mean tumor volume: 72.34 mm^3
  Percent inhibition of tumor volume: 13.94%
[5]; Day 15
  Mean tumor volume: 128.58 mm^3
  Percent inhibition of tumor volume: 1.20%
[5]; Day 18
  Mean tumor volume: 231.26 mm^3
  Percent inhibition of tumor volume: 19.87%
[5]; Day 22
  Mean tumor volume: 388.94 mm^3
  Percent inhibition of tumor volume: 18.64%
[5]; Day 25
  Mean tumor volume: 617.86 mm^3
  Percent inhibition of tumor volume: 22.82%
[5]; Day 29
  Mean tumor volume: 988.37 mm^3
  Percent inhibition of tumor volume: 21.47%
[5]; Day 32
  Mean tumor volume: 1459.49 mm^3
  Percent inhibition of tumor volume: 18.16%
[5]; MC38 tumor-bearing C57BL/6 mice, Table 6, FIGS. 1-3
  Tumor inhibition (in words): has tumor inhibition-promoting properties
